The source of these data is patent publication US7666875B2, “Hydantoin compounds” (Eisai R&D Management Co., Ltd., priority 2005, dated 2010).

One assay concerns the target T1, human T-bet (Homo sapiens, UniProt Q9UL17).
T1 construct: expressed in transfected cells; host or cells: engineered HEK cells (HEKT-bet)
T1 sequence (Q9UL17 1-535): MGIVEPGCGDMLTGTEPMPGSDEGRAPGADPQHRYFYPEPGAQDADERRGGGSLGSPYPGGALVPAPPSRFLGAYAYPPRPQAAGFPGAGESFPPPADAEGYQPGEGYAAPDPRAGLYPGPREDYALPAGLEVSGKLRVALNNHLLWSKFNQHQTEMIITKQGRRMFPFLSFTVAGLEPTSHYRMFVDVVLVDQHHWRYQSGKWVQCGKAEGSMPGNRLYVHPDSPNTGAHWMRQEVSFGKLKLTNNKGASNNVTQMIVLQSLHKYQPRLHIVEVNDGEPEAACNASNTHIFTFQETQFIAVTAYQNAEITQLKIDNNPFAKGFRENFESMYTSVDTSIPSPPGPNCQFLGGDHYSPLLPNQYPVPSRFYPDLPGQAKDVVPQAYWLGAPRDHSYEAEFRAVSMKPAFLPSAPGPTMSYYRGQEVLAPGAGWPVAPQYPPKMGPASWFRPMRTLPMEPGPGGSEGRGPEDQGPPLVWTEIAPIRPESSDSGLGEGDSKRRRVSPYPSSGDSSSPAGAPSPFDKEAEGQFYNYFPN
In words: HEKT-bet-luc assay (T-bet dependent luciferase reporter in engineered HEK cells). It counts as cell-based. The note with it: Table 3; HEKT-bet cells, compound 24 hours; IC50 normalized to reference ER-213038; read-out: IC50. The procedure, abridged:
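HEK cells expressing human T-bet and a T-box element–luciferase reporter were treated with compound for 24 h, then luciferase was read by luminescence. IC50 was scaled between uninhibited signal and maximal inhibition, then normalized to a same-plate reference compound multiplied by its established potency.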
As for `COCCN1C(=O)N(CCCc2cccnc2)C(=O)C12CCN(Cc1ccnc3ccccc13)CC2` [Example 81], the IC50 came out at 650 nM. Same read-out and setting: the same measure for `COCCN1C(=O)N(Cc2cccc(OC)c2)C(=O)C12CCN(Cc1cc(C)c(C)s1)CC2` [Example 91]: 845 nM; for `COCCN1C(=O)N(Cc2cccc(OC)c2)C(=O)C12CCN(C/C=C/c1ccc(OC)cc1)CC2` [Example 108]: 1470 nM; for `COc1cc(CN2CCC3(CC2)C(=O)N(C/C=C/c2ccccc2)C(=O)N3CC=C(C)C)cc(OC)c1` [Example 86]: 757 nM. Consider `COCCN1C(=O)N(CCCCCCCCO)C(=O)C12CCN(Cc1ccccc1)CC2` [Example 93], for which the IC50 amounted to 914 nM. As for `COCCN1C(=O)N(Cc2cccc(OC)c2)C(=O)C12CCN(Cc1ccc(-c3cccs3)s1)CC2` [Example 120], the IC50 is 1990 nM. With `COCCN1C(=O)N(Cc2cccc(OC)c2)C(=O)C12CCN(Cc1ccccc1OC(F)(F)F)CC2` [Example 103], the half-inhibitory concentration (IC50) came out at 1340 nM. For `COCCN1C(=O)N(Cc2ccc3cc4ccccc4cc3c2)C(=O)C12CCN(Cc1ccccc1)CC2` [Example 96], the IC50 is 1030 nM. `COCCN1C(=O)N(CC(=O)c2ccc3ccccc3c2)C(=O)C12CCN(Cc1ccccc1)CC2` [Example 107]: the IC50 is 1460 nM. Take `COCCN1C(=O)N(Cc2ccoc2)C(=O)C12CCN(Cc1cc(OC)cc(OC)c1)CC2` [Example 94]: the IC50 amounted to 936 nM.

The assay is the same for the next values; noted with them: Table 4; HEKT-bet cells, compound 24 hours; IC50 normalized to reference ER-213038; read-out: IC50.
In the case of `O=C1N(C/C=C/c2ccccc2)C(=O)C2(CCN(Cc3cccc4ccccc34)CC2)N1Cc1ccncc1` [Example 223], the IC50 turned out to be 371 nM.

Consider `COCCN1C(=O)N(Cc2ccccc2)C(=O)C12CCN(Cc1cc(OC)cc(OC)c1)CC2` [Example 196], for which the IC50 is 268 nM. `COCCN1C(=O)N(Cc2cccc(OC)c2)C(=O)C12CCN(Cc1cccc3ccccc13)CC2` [Example 191]: the IC50 amounted to 253 nM.

As for `COCCN1C(=O)N(Cc2cccc(OC)c2)C(=O)C12CCN(Cc1cc(OC)cc(OC)c1F)CC2` [Example 146], the IC50 worked out at 142 nM. Turning to `COCCN1C(=O)N(Cc2cccc(OC)c2)C(=O)C12CCN(Cc1cc(-c3ccccc3)ccc1OC)CC2` [Example 209], the IC50 came to 325 nM.

As to `COCCN1C(=O)N(CCCc2ccccc2)C(=O)C12CCN(Cc1cc(OC)cc(OC)c1)CC2` [Example 188], the IC50 is 246 nM. With `COCCN1C(=O)N(Cc2ccc3ccccc3c2)C(=O)C12CCN(Cc1cc(OC)cc(OC)c1)CC2` [Example 151], the IC50 turned out to be 148 nM. On to `COCCN1C(=O)N(Cc2cccc(OC)c2)C(=O)C12CCN(Cc1cc(OC)ccc1OC)CC2` [Example 269], for which the IC50 came to 513 nM. Take `COCCN1C(=O)N(Cc2cccc(OC)c2)C(=O)C12CCN(Cc1cccc3c1OCCO3)CC2` [Example 290]: the IC50 came to 568 nM. Turning to `CCN1C(=O)N(C/C=C/c2ccccc2)C(=O)C12CCN(Cc1cccc(C)c1)CC2` [Example 125], the IC50 was 68 nM.

Turning to `COCCN1C(=O)N(Cc2cccc(OC)c2)C(=O)C12CCN(Cc1cccc3c4ccccc4n(C)c13)CC2` [Example 295], the IC50 stood at 580 nM.

With `COc1cccc(CN2C(=O)N(Cc3cccc(OC)c3)C3(CCN(Cc4cc(OC)cc(OC)c4)CC3)C2=O)c1` [Example 202], the IC50 is 290 nM. On to `O=C1N(C/C=C/c2ccccc2)C(=O)C2(CCN(Cc3cccc4ccccc34)CC2)N1CCO` [Example 204], for which the IC50 stood at 298 nM.

As to `COCCN1C(=O)N(Cc2cccc(OC)c2)C(=O)C12CCN(Cc1cc3ccccc3nc1Cl)CC2` [Example 227], the IC50 was determined as 373 nM.

In the case of `COc1cc(CN2CCC3(CC2)C(=O)N(Cc2cc(OC)cc(OC)c2)C(=O)N3Cc2ccc(-n3cccn3)cc2)cc(OC)c1` [Example 288], the IC50 turned out to be 567 nM. Same read-out and setting: the figure for `COCCN1C(=O)N(C/C=C/c2ccccc2)C(=O)C12CCN(Cc1ccccc1)CC2` [Example 171] is 191 nM; for `COCCN1C(=O)N(Cc2cccc(OC)c2)C(=O)C12CCN(Cc1cccc3c1Cc1ccccc1-3)CC2` [Example 169] it is 190 nM. With `COCCN1C(=O)N(Cc2cccc(OC)c2)C(=O)C12CCN(Cc1c(C)ccc3ccccc13)CC2` [Example 123], the IC50 was determined as 60 nM. Turning to `CCN1C(=O)N(CCCOc2ccccc2)C(=O)C12CCN(Cc1cccc(OC)c1)CC2` [Example 277], the IC50 is 540 nM.

`CCN1C(=O)N(CCCOc2ccccc2)C(=O)C12CCN(Cc1cccc3ccccc13)CC2` [Example 260]: the concentration for half-maximal inhibition (IC50) was found to be 486 nM. Still for that read-out and setting: the same measure for `COCCN1C(=O)N(Cc2cccc(OC)c2)C(=O)C12CCN(Cc1cccc(Br)c1)CC2` [Example 159]: 166 nM; for `COCCN1C(=O)N(C/C=C/c2ccc(C)cc2)C(=O)C12CCN(Cc1ccccc1)CC2` [Example 190]: 251 nM; for `CCN1C(=O)N(Cc2cccc(OC)c2)C(=O)C12CCN(Cc1ccc3ccccc3c1)CC2` [Example 197]: 270 nM.

Take `COCCN1C(=O)N(Cc2cccc(OC)c2)C(=O)C12CCN(Cc1cccc(-c3ccccc3)c1)CC2` [Example 181]: the half-inhibitory concentration (IC50) came to 225 nM. `COc1cccc(CN2C(=O)N(Cc3ccncc3)C3(CCN(Cc4cccc5ccccc45)CC3)C2=O)c1` [Example 138]: the IC50 came out at 125 nM.

On to `COc1cccc(CN2C(=O)N(CC=C(C)C)C3(CCN(Cc4cccc5ccccc45)CC3)C2=O)c1` [Example 265], for which the IC50 stood at 501 nM. For `CCN1C(=O)N(CCc2cc(OC)cc(OC)c2)C(=O)C12CCN(Cc1cc(OC)cc(OC)c1)CC2` [Example 287], the IC50 came out at 561 nM. The same measure, in the same setting: the same measure for `COCCN1C(=O)N(Cc2cccc(OC)c2)C(=O)C12CCN(Cc1ccc(F)c(OC)c1)CC2` [Example 278]: 542 nM; for `COCCN1C(=O)N(Cc2cccc(OC)c2)C(=O)C12CCN(Cc1cccc(N3CCCC3)c1)CC2` [Example 176]: 203 nM; for `COCCN1C(=O)N(Cc2cccc(OC)c2)C(=O)C12CCN(Cc1cccc(C)c1)CC2` [Example 233]: 386 nM. For `COc1cccc(CN2C(=O)N(Cc3ccccn3)C3(CCN(Cc4cccc5ccccc45)CC3)C2=O)c1` [Example 241], the IC50 amounted to 424 nM. In the case of `COc1cccc(CN2C(=O)N(Cc3cccc(OC)c3)C3(CCN(Cc4ccccc4)CC3)C2=O)c1` [Example 297], the IC50 was found to be 586 nM. Turning to `COCCN1C(=O)N(C/C=C/c2ccccc2F)C(=O)C12CCN(Cc1ccccc1)CC2` [Example 165], the IC50 worked out at 183 nM. `COCCN1C(=O)N(Cc2cccc(OC)c2)C(=O)C12CCN(Cc1c(OC)ccc3ccccc13)CC2` [Example 129]: the IC50 is 94 nM. `COCCN1C(=O)N(CCCOc2ccccc2)C(=O)C12CCN(Cc1ccc3ccccc3c1)CC2` [Example 232]: the IC50 was 385 nM. Take `COCCN1C(=O)N(Cc2cccc(OC)c2)C(=O)C12CCN(Cc1cccc(N3CCOCC3)c1)CC2` [Example 230]: the IC50 is 379 nM.

Take `COCCN1C(=O)N(Cc2cccc(OC)c2)C(=O)C12CCN(Cc1ccc(C)c3ccccc13)CC2` [Example 127]: the IC50 was 82 nM. Turning to `COCCN1C(=O)N(Cc2ccc3ccccc3c2)C(=O)C12CCN(Cc1cccc3ccccc13)CC2` [Example 187], the IC50 came to 243 nM. For the compound `COCCN1C(=O)N(Cc2cccc(OC)c2)C(=O)C12CCN(Cc1cccc(-c3ccoc3)c1)CC2` [Example 258], the concentration for half-maximal inhibition (IC50) is 481 nM. As to `CCCOc1ccc(CN2CCC3(CC2)C(=O)N(Cc2cccc(OC)c2)C(=O)N3CCOC)cc1OC` [Example 273], the IC50 stood at 528 nM.
